From patent publication US6942874B2, “Nucleotide compounds that block the bitter taste of oral compositions” (Linguagen Corp., priority 2001, dated 2005)

Tested on: transducin
Assay: [35S] GTPγS binding assay: transducin activation by bitter-stimulated taste membranes
Assay type: biochemical, bovine
Description: Since G proteins have an intrinsic GTPase activity, which terminates the activation cycle, a radioactive nonhydrolyzable analogue of GTR such as [^35S] GTPγS or [^3H] GppNHp must be used. To test for the inhibitory activity of nucleotide compounds, several modifications of the standard [^35S] GTPγS binding assay were made to efficiently measure activation by bitter responsive receptors that couple to gustducin or transducin ([…] et al., in preparation). To maximize the bitter dependent change in radiolabel uptake GDP:GTPγS ratios, buffer composition, and specific activity of the [^35S] GTPγS were adjusted. […] Radionucleotide bound to transducin can be measured by filter binding followed by washing to remove unbound label (Asano et al., 1984 Biochemistry 23:5460-5467). The final concentrations in the [^35S] GTPγS binding assay mix are 10 mM HEPES pH 7.5, 5 mM MgCl2, 50 mM NaCl, 1 mM dithiolthreitol, 10 μM GDP, 1 μM [^35S] GTPγS (0.1 μCi/sample), 0.5 μg/0.05 ml transducin heterotrimer. A 2× stock of the above mixture is added to the bitter compound. Reactions are started by addition of 5 μg/0.05 ml bovine circumvallate membranes and the sample volume is adjusted to […] with water. Samples are incubated at room temperature (25±2° C. for 2 hours). Long incubation times are necessary due to the low density of receptors in the membranes. Similar results are obtained with high dilutions of rhodopsin. Samples are then filtered through BA-85 nitrocellulose filters and washed 3 times with 3 ml of 50 mM Tris-HCl pH 7.5, 4 mM MgCl2, and 0.1 M NaCl. Filters are dried, placed in scintillation fluid and the radioactivity is determined by scintillation counting. Experiments are performed in triplicate with several concentrations of the tastant of interest. Controls include: (i) a rhodopsin positive control, (ii) a no tastant negative control and (iii) a no membrane control +/-tastants.

Compound: CC[N+](CC)(CC(=O)Nc1c(C)cccc1C)Cc1ccccc1 [denatonium]
- [35S] GTPγS radiolabel binding to transducin (10 mM, with circumvallate membranes, vs membranes alone, Student's t-test, FIG. 1A): increased radiolabel binding
- activation of transducin relative to maximal rhodopsin stimulated [35S] GTPγS binding (denatonium 10 mM, with bovine circumvallate membranes, FIG. 1A): ~40%
- concentration dependence of transducin activation (in the presence of circumvallate membranes, FIG. 1B): concentration dependent activation of transducin
